Data published in patent US7989435B2, “Phytic citrate compounds and process for preparing the same” (IP-6 Research, Inc., priority 2005, dated 2011).
Several values for one entry are separate records, joined by “and”; a condition that tells them apart may be missing. Equal entries are not always repeated. Where two headings read alike, the source gives them in different places.

Key:
[1] = Biodegradability, 301 A DOC Die-Away Test (OECD Guidelines)
Method: The biodegradability of phytic citrate was evaluated according to the method of “301 A DOC Die-Away Test” (1993), OECDGuidelines for Testing of Chemicals.

[2] = Comparison of chelating effects, divalent cation electrode and ion analyzer; type: binding; parameters: unit not given here
Method: The chelating effects of the various chelators were measured by the conventional method known to an artisan in the art. The concentration of the ions chelated by the chelator was determined using a divalent cation electrode (e.g., Model 93-32, made by Orion Research Incorporated) and an ion analyzer (e.g., Model EA 920, made by Orion Research Incorporated).

[3] = at 66 grams/liter; cited from earlier work
[4] = Re-dissolution rate of Fe^2+, FIG. 2; conditions: in brain tissues, compared with phytic acid and EDTA
[5] = 7 days, test suspension / reference flask
[6] = 14 days, test suspension / reference flask

## Nc1ccccc1 [Aniline Reference, Aniline, reference compound]
[1]; [5]
  Degradation (%) in days: >90 (100) %
[1]; [6]
  Degradation (%) in days: >90 (99.7) %

## O=C(O)CC(O)(CC(=O)O)C(=O)O [Citric acid]
[2]
  Ca^2+ (conc. of ions chelated): 3.50

## O=C(O)CN(CCN(CC(=O)O)CC(=O)O)CC(=O)O [EDTA, ethylenediaminetetraacetic acid]
[2]
  Ca^2+ (conc. of ions chelated): 10.70

## O=C(O)[C@H](O)[C@@H](O)[C@H](O)[C@H](O)CO [Gluconic acid]
[2]
  Ca^2+ (conc. of ions chelated): 1.20

## CC(O)C(=O)O (stereo not drawn) [Lactic acid]
[2]
  Ca^2+ (conc. of ions chelated): 1.07

## O=P(O)(O)O[C@H]1[C@H](OP(=O)(O)O)[C@@H](OP(=O)(O)O)[C@H](OP(=O)(O)O)[C@@H](OP(=O)(O)O)[C@H]1OP(=O)(O)O [Phytic acid]
[3]
  pH of aqueous solution: 0.9
[2]; pH 3
  Ca^2+ (conc. of ions chelated): 9.73
[2]; pH 5
  Ca^2+ (conc. of ions chelated): 10.55
[2]; pH 7
  Ca^2+ (conc. of ions chelated): 10.57

## Polyphosphoric acid
[2]
  Ca^2+ (conc. of ions chelated): 3.0

## phytic hexa-citrate [Phytic citrate]
[4]
  Re-dissolution rate of Fe^2+: superior redissolution capability to phytic acid and EDTA
[1]; 7 days, abiotic sterile control
  Degradation (%) in days: <10%
[1]; 7 days, absorption control
  Degradation (%) in days: <10%
[1]; [5]
  Degradation (%) in days: >90 (98.0) % and >90 (97.6) % and >90 (99.4) %
[1]; 14 days (mean of test suspension flasks 1-3)
  Degradation (%) in days: >90 (99.5) %
[1]; 14 days, abiotic sterile control
  Degradation (%) in days: <10%
[1]; 14 days, absorption control
  Degradation (%) in days: <10%
[1]; [6]
  Degradation (%) in days: >90 (98.6) % and >90 (100) %
[1]; results of Table 3
  Biodegradability (conclusion in words): readily biodegradable
[2]
  Ca^2+ (conc. of ions chelated): 12.24
